Measured values reported in US20250011878A1, “METHOD TO DETECT RNA BIOMARKERS” (ITALFARMACO SPA, priority 2021, published 2025).

What was measured:
[1] = clinical data; cited from earlier work
human monocytes = test: RNAseq gene expression in purified human monocytes treated with ITF3756 and/or TNF-α; format: cell-based
Description: PBMCs used for the experiments were obtained from Buffy Coats of healthy donors (all samples tested negative for transmissible diseases as required for blood transfusion) separated over a Ficoll-Hypaque gradient (Biochrom). Monocytes were purified by negative selection from 100×10^6 PBMC using Pan Monocytes Isolation Kit (Milteny) following manufacturer's instructions. By Pan Monocyte Isolation kit untouched monocytes are isolated from human PBMCs and the simultaneous enrichment of classical (CD14^++CD16^−), non classical (CD14^+CD16^++) and intermediate (CD14^++CD16^+) monocytes is achieved. Non-monocytes, such as T cells, NK cells, B cells, dendritic cells, and basophils are indirectly magnetically labeled using a cocktail of biotin-conjugated antibodies and anti-Biotin MicroBeads. Briefly, 400 μL of Buffer (PBS 1×, 0.5% BSA and 2 mM EDTA), 100 μL of FcR Blocking Reagent and 100 μL of Biotin-Antibody Cocktail were added to PBMC, previously washed with PBS by centrifugation 300×g for 5 minutes, mixed and incubate for 5 minutes in the refrigerator (2-8° C.). After incubation, 300 μL of Buffer and 200 μL of anti-biotin microbeads were added to the cells, mixed and incubate further for 10 minutes in the refrigerator. After incubation cells were processed by subsequent magnetic cell separation. Cell suspension was applied onto the column and the flow-through containing unlabeled cells, representing the enriched monocytes, was collected. Purified monocytes were washed with Buffer by centrifugation 300×g for 5 minutes and counted in PBS. Purified monocytes (1,0×10^6/ml) were pre-treated for 2 h with ITF3756 1 μM or DMSO (0.005%) in 12-well plates in 1 ml final volume of complete medium (RPMI (Biochrom), FCS 10% and penicillin/streptomycin 1× (Sigma)). The cells were then stimulated or not with TNF-α (100 ng/mL, Peprotech) for 4h. After incubation with ITF3756 and TNF-α, the cells were collected, washed with PBS by centrifugation 300×g for 5 minutes and stored at −80° C. Samples were thawed on the bench for 2 minutes and total RNA was extracted with Trizol reagent (Thermo Fisher Scientific), following manufacturer's instructions. Briefly, Trizol reagent (0.75 ml Trizol per 5-10×10^6 cells) was added to the samples and the samples were incubated at room temperature (RT) for 5 minutes. After incubation, chloroform (150 μL per 0.75 mL Trizol) was added to the samples and after 3 minutes of incubation at RT, samples were centrifuged for 12000×g for 14 minutes at 4° C. After centrifugation, the mixture separates into 3 phases and RNA remains in the aqueous phase. The aqueous phase was removed for each sample and placed in new tubes, and isopropanol (0,375 ml per 0.75 ml of Trizol) was added in each tube. Samples was incubated for 30 minutes in the refrigerator (2-8° C.). After incubation, samples were centrifugated for 12000×g for 10 minutes at 4° C., the supernatant was removed and 75% ethanol (0.75 ml per 0.75 ml of Trizol) was added to samples. Samples were centrifuged for 7500×g for 5 minutes at 4° C., and the supernatant discarded. RNA was air dried on the bench for 5-10 minutes. RNA Samples was then resuspended in water (10-50 μL). The scheme of the experimental procedures carried out to generate the RNA sequence data is represented in FIG. 1. To determine the quantity and the integrity/purity of RNA samples, check controls were first performed by the Agilent Technologies 2100 Bioanalyzer using RNA 6000 LabChip® kit (Agilent #5067-1511). The Bioanalyzer is a bio-analytical device based on a combination of microfluidic chips, voltage-induced size separation in gel filled channels and laser-induced fluorescence (LIF) detection on a miniaturized scale. The RNA Integrity Number (RIN) software algorithm allows the classification of total RNA, based on a numbering system from 1 to 10, (with 1 being the most degraded and 10 being the most intact). […] Purified samples were processed using TruSeq RNA-Seq v2 Library Preparation Kit. […]

[2] = single treatment (ITF3756 1 μM or TNF-α 100 ng/mL), RNAseq, vs control
[3] = single treatment vs vehicle-treated control (don), monocytes 4 h, padj<0.05

Row | Molecule | tolerability in patients [1] | ADA gene expression (human monocytes; [2]) | IRF6 gene expression (human monocytes; [2]) | LTBP4 gene expression (human monocytes; [2]) | MMP9 gene expression (human monocytes; single treatment (ITF3756 1 μM or TNF-α 100 ng/mL), RNAseq, vs untreated control) | PD-L1 gene expression (human monocytes; single treatment (TNF-α 100 ng/mL 4 h), vs control) | Genes Down regulated (number of genes modulated) (human monocytes; [3]) | Genes Up regulated (number of genes modulated) (human monocytes; [3])
1 | O=C(NO)c1ccc(CN(c2cnccn2)c2cnccn2)cc1 [KA2507] | very well tolerated |  |  |  |  |  |  | 
2 | O=C(CCCCCCNC(=O)c1cnc(N(c2ccccc2)c2ccccc2)nc1)NO [Ricolinostat] | very well tolerated |  |  |  |  |  |  | 
3 | TNF-α [reference compound] |  | upregulation | no effect | downregulated by two fold | No modulation | strongly upregulated | 1688 | 1563
